From patent publication US20240083857A1, “2-Methyl-Quinazolines” (Bayer Pharma Aktiengesellschaft, priority 2017, published 2024)
Where two headings read alike, the source gives them in different places.

How the values were obtained:
[1] = target: human SOS1 (nucleotide exchange of K-Ras^G12C) (Homo sapiens, UniProt Q07889); experiment: Biochemical assay 2: K-Ras^G12C activation assay by hSOS1 at high GTP concentration (HTRF)
[2] = target: human SOS1 (loading of human K-Ras^G12C-GDP with fluorescent GTP-analog) (Homo sapiens, UniProt Q07889); experiment: Biochemical assay 3: K-Ras^G12C activation assay by hSOS1 (HTRF); conditions: for inhibition at 20 µM: read-out: Assay 3 (KRAS-Activation by SOS no GTP) activity expressed as % inhibition at 20 μM
[3] = target: K-Ras^G12C : hSOS1 interaction (Homo sapiens, UniProt Q07889); experiment: Biochemical assay 1: K-Ras^G12C interaction assay with hSOS1 (HTRF); assay type: binding
[4] = high GTP, read-out: Assay 2 (KRAS-Activation by SOS high GTP) activity expressed as IC50
[5] = no GTP, read-out: Assay 3 (KRAS-Activation by SOS no GTP) activity expressed as IC50
[6] = read-out: Assay 1 (KRAS-SOS Interaction) activity expressed as IC50
[7] = E-notation values, unit inferred, 50 μM GTP, read-out: Assay 2 (KRAS-Activation, high GTP) IC50
[8] = E-notation values, unit inferred, read-out: Assay 3 (KRAS-Activation) IC50
[9] = E-notation values, unit inferred, read-out: Assay 1 (KRAS-SOS interaction) IC50

| SMILES | IC50 [1, 4] | IC50 [2, 5] | IC50 [3, 6] | inhibition at 20 µM ([2]; no GTP) | inhibition at 20 µM ([3]; read-out: Assay 1 (KRAS-SOS Interaction) activity expressed as % inhibition at 20 μM) | IC50 [1, 7] | IC50 [2, 8] | IC50 [3, 9] |
| --- | --- | --- | --- | --- | --- | --- | --- | --- |
| COc1cc2nc(C)nc(N[C@H](C)c3cccc(-c4ccc(C(=O)N(C)C)cc4)c3)c2cc1OC [Example 115, 3′-{(1R)-1-[(6,7-dimethoxy-2-methylquinazolin-4-yl)amino]ethyl}-N,N-dimethylbiphenyl-4-carboxamide] | 802 nM | 1570 nM | 865 nM |  |  |  |  |  |
| C/C=C/c1cccc([C@@H](C)Nc2nc(C)nc3cc(OC)c(OC)cc23)c1 [Example 116, 6,7-dimethoxy-2-methyl-N-[(1R)-1-{3-[(1E)-prop-1-en-1-yl]phenyl}ethyl]quinazolin-4-amine] | 1150 nM | 1720 nM | 1080 nM |  |  |  |  |  |
| COc1cc2nc(C)nc(N[C@H](C)c3cccc(C4=CCCC4)c3)c2cc1OC [Example 117, N-{(1R)-1-[3-(cyclopent-1-en-1-yl)phenyl]ethyl}-6,7-dimethoxy-2-methylquinazolin-4-amine] | 1350 nM | 3080 nM | 1650 nM |  |  |  |  |  |
| COc1cc2nc(C)nc(N[C@H](C)c3cccc(-c4cccc(NS(C)(=O)=O)c4)c3)c2cc1OC [Example 118, N-(3′-{(1R)-1-[(6,7-dimethoxy-2-methylquinazolin-4-yl)amino]ethyl}biphenyl-3-yl)methanesulfonamide] | 481 nM | 774 nM | 529 nM |  |  |  |  |  |
| COc1cc2nc(C)nc(N[C@H](C)c3cccc(-c4ccccc4NC(C)=O)c3)c2cc1OC [Example 119, N-(3′-{(1R)-1-[(6,7-dimethoxy-2-methylquinazolin-4-yl)amino]ethyl}biphenyl-2-yl)acetamide] | 1280 nM | 1480 nM | 858 nM |  |  |  |  |  |
| COc1cc2nc(C)nc(N[C@H](C)c3cccc(-c4ccccc4S(C)(=O)=O)c3)c2cc1OC [Example 120, 6,7-dimethoxy-2-methyl-N-{(1R)-1-[2′-(methylsulfonyl)biphenyl-3-yl]ethyl}quinazolin-4-amine] | 2020 nM | 3530 nM | 1590 nM |  |  |  |  |  |
| COc1cc2nc(C)nc(N[C@H](C)c3cccc(-c4ccccc4NS(C)(=O)=O)c3)c2cc1OC [Example 121, N-(3′-{(1R)-1-[(6,7-dimethoxy-2-methylquinazolin-4-yl)amino]ethyl}biphenyl-2-yl)methanesulfonamide] | 679 nM | 791 nM | 452 nM |  |  |  |  |  |
| COc1cc2nc(C)nc(N[C@H](C)c3cccc(-c4cccc(OCc5ccccc5)c4)c3)c2cc1OC [Example 123, N-{(1R)-1-[3′-(benzyloxy)biphenyl-3-yl]ethyl}-6,7-dimethoxy-2-methylquinazolin-4-amine] | 13100 nM |  |  | 42% | 52% |  |  |  |
| COc1cc2nc(C)nc(N[C@H](C)c3cccc(-c4cc(Cl)cc(Cl)c4)c3)c2cc1OC [Example 124, N-[{1R)-1-(3′,5′-dichlorobiphenyl-3-yl)ethyl]-6,7-dimethoxy-2-methylquinazolin-4-amine] | 9300 nM |  | 18300 nM | 37% |  |  |  |  |
| COc1cc2nc(C)nc(N[C@H](C)c3cccc(-c4ccc5c(c4)OCCO5)c3)c2cc1OC [Example 125, N-{(1R)-1-[3-(2,3-dihydro-1,4-benzodioxin-6-yl)phenyl]ethyl}-6,7-dimethoxy-2-methylquinazolin-4-amine] | 1090 nM | 2040 nM | 2030 nM |  |  |  |  |  |
| COc1cc2nc(C)nc(N[C@H](C)c3ccc(C#N)cc3)c2cc1OC [Example 189, 4-{(1R)-1-[(6,7-dimethoxy-2-methylquinazolin-4-yl)amino]ethyl}benzonitrile] | 1170 nM | 2760 nM | 998 nM |  |  |  |  |  |
| COc1cc2nc(C)nc(NC(C)c3cc(Br)cc4c3OCC4)c2cc1OC (stereo not drawn) [Example 225, N-[1-(5-bromo-2,3-dihydro-1-benzofuran-7-yl)ethyl]-6,7-dimethoxy-2-methylquinazolin-4-amine] | 2270 nM | 4680 nM | 1540 nM |  |  |  |  |  |
| COc1cc2nc(C)nc(NC(C)c3ccc(-c4ccccc4CNCC(N)=O)s3)c2cc1OC (stereo not drawn) [Example 279, 2-[2-(5-{1-[(6,7-dimethoxy-2-methylquinazolin-4-yl)amino]ethyl}thiophen-2-yl)-benzyl]glycinamide] | 168 nM | 160 nM | 176 nM |  |  |  |  |  |
| COc1cc2nc(C)nc(NC(C)c3ccc(-c4ccccc4CNCC(=O)N(C)C)s3)c2cc1OC (stereo not drawn) [Example 280, 2-[2-(5-{1-[(6,7-dimethoxy-2-methylquinazolin-4-yl)amino]ethyl}thiophen-2-yl)benzyl]-N,N-dimethylglycinamide] | 120 nM | 135 nM | 148 nM |  |  |  |  |  |
| CNC(=O)CNCc1ccccc1-c1ccc(C(C)Nc2nc(C)nc3cc(OC)c(OC)cc23)s1 (stereo not drawn) [Example 282, 2-[2-(5-{1-[(6,7-dimethoxy-2-methylquinazolin-4-yl)amino]ethyl}thiophen-2-yl)benzyl]-N-methylglycinamide] | 265 nM | 212 nM | 257 nM |  |  |  |  |  |
| COCCNC(=O)CNCc1ccccc1-c1ccc(C(C)Nc2nc(C)nc3cc(OC)c(OC)cc23)s1 (stereo not drawn) [Example 283, 2-[2-(5-{1-[(6,7-dimethoxy-2-methylquinazolin-4-yl)amino]ethyl}thiophen-2-yl)benzyl]-N-(2-methoxyethyl)glycinamide] | 371 nM | 344 nM | 418 nM |  |  |  |  |  |
| COc1cc2nc(C)nc(NC(C)c3ccc(-c4ccccc4CNCC(=O)NCc4ccccc4)s3)c2cc1OC (stereo not drawn) [Example 284, N-benzyl-2-[2-(5-{1-[(6,7-dimethoxy-2-methylquinazolin-4-yl)amino]ethyl}thiophen-2-yl)benzyl]glycinamide] | 879 nM | 889 nM | 1060 nM |  |  |  |  |  |
| COc1cc2nc(C)nc(NC(C)c3ccc(-c4ccccc4CNCC(=O)Nc4ccccc4)s3)c2cc1OC (stereo not drawn) [Example 289, 2-[2-(5-{1-[(6,7-dimethoxy-2-methylquinazolin-4-yl)amino]ethyl}thiophen-2-yl)benzyl]-N-phenylglycinamide] | 1180 nM | 2730 nM | 2110 nM |  |  |  |  |  |
| COc1cc2nc(C)nc(NC(C)c3cccs3)c2cc1OC (stereo not drawn) [Example 347, 6,7-dimethoxy-2-methyl-N-[1-(thiophen-2-yl)ethyl]quinazolin-4-amine] | 9050 nM |  | 15600 nM | 48% |  |  |  |  |
| COc1cc2nc(C)nc(NC(C)c3ccc(-c4ccc(Br)cc4CN(C)C)s3)c2cc1OC (stereo not drawn) [Example 384, N-(1-(5-(4-bromo-2-((dimethylamino)methyl)phenyl)thiophen-2-yl)ethyl)-6,7-dimethoxy-2-methylquinazolin-4-amine] |  |  |  |  |  | 66.5 nM | 84.6 nM | 123 nM |
| COc1cc2nc(C)nc(NC(C)c3ccc(-c4ccc(C(F)(F)F)cc4CN(C)C)s3)c2cc1OC (stereo not drawn) [Example 385, N-(1-(5-(2-((dimethylamino)methyl)-4-(trifluoromethyl)phenyl)thiophen-2-yl)ethyl)-6,7-dimethoxy-2-methylquinazolin-4-amine] |  |  |  |  |  | 329 nM | 388 nM | 732 nM |
| COc1cc2nc(C)nc(NC(C)c3ccc(-c4ccc(C(F)(F)F)cc4C)s3)c2cc1OC (stereo not drawn) [Example 386, 6,7-di methoxy-2-methyl-N-(1-{5-[2-methyl-4-(trifluoromethyl)phenyl]-2-thienyl}ethyl)quinazolin-4-amine] |  |  |  |  |  | 3660 nM | 10100 nM | 8770 nM |
| Cc1nc(NC(C)c2ccc(-c3ccccc3CN(C)C)s2)c2cc(N3CCCC3)ccc2n1 (stereo not drawn) [Example 415, N-[1-(5-{2-[(dimethylamino)methyl]phenyl}thiophen-2-yl)ethyl]-2-methyl-6-(pyrrolidin-1-yl)quinazolin-4-amine] |  |  |  |  |  | 88.5 nM | 94.2 nM | 115 nM |
